Our source for the activation, Emax and AC50 values is patent US8937067B2, “Activators of human pyruvate kinase” (The United States of America, as represented by the …, priority 2008, dated 2015).

For experiment [1], the target named is T1, hPK-M2 (Homo sapiens, UniProt P14618). Briefly: Luminescent pyruvate kinase-luciferase coupled assay (KinaseGlo). In kind it is biochemical. As to conditions: for activation at 57 µM: KinaseGlo, % activation at 57 μM of compound, read-out: hPK, M2 Max. Res.; for AC50: luminescent pyruvate kinase-luciferase coupled assay (KinaseGlo), tables, read-out: hPK, M2 AC50. Summed up: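 Activation assay with 0.1 mM ADP and 0.5 mM PEP in 50 mM imidazole pH 7.2, 50 mM KCl, 7 mM MgCl2, 0.01% tween 20, 0.05% BSA; 1 h at r.t. ATP produced was read by luciferase luminescence. AC50 values were normalized to DMSO (uninhibited enzyme) and no-enzyme controls.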
T1 sequence (P14618 whole entry): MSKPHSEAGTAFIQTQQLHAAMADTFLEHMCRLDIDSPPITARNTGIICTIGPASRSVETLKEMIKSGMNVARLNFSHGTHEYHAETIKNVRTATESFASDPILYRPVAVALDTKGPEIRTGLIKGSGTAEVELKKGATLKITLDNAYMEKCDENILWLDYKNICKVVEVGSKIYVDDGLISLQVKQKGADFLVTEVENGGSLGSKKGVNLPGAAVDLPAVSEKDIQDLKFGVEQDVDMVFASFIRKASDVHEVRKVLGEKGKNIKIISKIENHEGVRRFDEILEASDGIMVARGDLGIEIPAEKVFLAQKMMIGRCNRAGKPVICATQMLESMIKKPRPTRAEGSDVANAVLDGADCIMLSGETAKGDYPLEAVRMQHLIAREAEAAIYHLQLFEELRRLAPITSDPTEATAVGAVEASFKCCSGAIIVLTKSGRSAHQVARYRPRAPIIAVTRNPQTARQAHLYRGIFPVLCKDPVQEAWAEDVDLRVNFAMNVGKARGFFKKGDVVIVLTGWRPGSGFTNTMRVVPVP

In experiment [2] the target is T1, hPK-M2. Briefly: Fluorescent pyruvate kinase-lactate dehydrogenase (LDH) coupled secondary assay. Type of experiment: biochemical. As to conditions: for Emax: read-out: maximum response, LDH assay. As for the experimental part:
Fluorescent Pyruvate Kinase-Lactate Dehydrogenase Coupled Secondary Assay.
Plates were immediately placed in ViewLux (Perkin Elmer) and NADH fluorescence was determined at 30 second exposure intervals for between 3 and 6 minutes. Data were normalized to the uninhibited and EC100 activation using known activators such as fructose-1,6-bis-phosphate. […] Data was collected on the Perkin Elmer Viewlux.

Molecules are shown by their SMILES.

For `O=S(=O)(c1cccc(F)c1)N1CCN(S(=O)(=O)c2ccc3c(c2)OCCO3)CC1` [Compound 7, 1-(2,3-dihydrobenzo[b][1,4]dioxin-6-ylsulfonyl)-4-(3-fluorophenylsulfonyl)piperazine], the activation at 57 µM on hPK-M2 [1] was found to be 107 ± 8.8%. Besides, the Emax on hPK-M2 [1] (luciferase-coupled assay, relative to activation by FBP, read-out: maximum response) worked out at 96.3%; at hPK-M2 [2], 259%. The AC50 on hPK-M2 [1] was 316 nM.
On to `O=C1CN(S(=O)(=O)c2ccc3c(c2)OCCO3)CCN1S(=O)(=O)c1c(F)cccc1F` [Compound 50, 1-(2,6-difluorophenylsulfonyl)-4-(2,3-dihydrobenzo[b][1,4]dioxin-6-ylsulfonyl)piperazin-2-one], for which, on hPK-M2 [1], the activation at 57 µM worked out at 96.9 ± 5.6% and the AC50 amounted to 2420 ± 160 nM. Moreover, the half-maximal activity concentration (AC50) on hPK-M2 [2] (read-out: AC50, LDH assay) was found to be 3.16 µM. The Emax at hPK-M2 [2] stood at 82%.

A word on the AC50: it is the midpoint of the concentration-response curve, whichever way the signal moves.
